Results published in patent US20230365570A1, “COMPOUNDS WITH GLUCOCORTICOID SPARING EFFECTS AND USES THEREOF” (The Regents of the University of California, priority 2020, published 2023).

Experiments:
Type in all cases: cell-based, human
THP-1 cells [1] = experiment: Cell viability by MTT assay in THP-1 cells; settings: purchased compound
Method: Two types of tetrazolium were used for viability assays. […] After 18 h of incubation, 0.5 mg/ml 3[4,5-dimethylthiazol-2-yl]-2,5-dipheyl tetrazolium bromide (MTT; Thermo Fisher Scientific) in assay media was added to each well at a final concentration of (0.5 mg/ml) and further incubated for 4-6 h. The absorbances at 570 and 650 nm were measured by a Tecan Infinite M200 plate reader, For RA FLS, the cells were dispersed into 96-well flat bottom plates (104/200 μL/well) and incubated overnight. The next day, RA FLS were treated with 5 μM of each compound for 18 h of incubation. Ten μl of WST-8 [2-(2-methoxy-4-nitrophenyl)-3-(4-nitrophenyl)-5-(2,4-disulfophewnyl)-2H-tetrazolium, monosodium salt] solution was added to each well and the cells were further incubated for 2-4 h. The absorbance was measured at 450 nm with Bio-Rad iMark plate reader (Bio-Rad Laboratories Inc., Hercules, CA, Unites States).

THP-1 cells [2] = experiment: TNF stimulated CXCL8 release by THP-1 cells; settings: TNF 2 ng/ml, overnight (FIG. 3B)
Method: (§1) THP-1 cells (10^5 cells/200 μL/well) and RA FLS (104/200 μL/well) were plated in 96 well plates and pre-treated with compound or vehicle for 1 h and then stimulated with either LPS (10 ng/ml), 1L-1ß (2 ng/ml) or TNF (2 ng/ml for THP-1 and 1 ng/ml for RA FLS). After 18 h of incubation, supernatants were collected and the levels of cytokines and chemokines in the culture supernatants were measured by ELISA according to the manufacturer's protocols (R&D systems, Minneapolis, MN).
(§2) The lead compounds belonging to chemotypes 1, 3, and 5 were tested for potency in suppressing chemokine and cytokine production by THP-1 cells in the presence of different inflammatory stimuli. The production of CXCL8 induced by either LPS (10 ng/ml), IL-1ß (2 ng/ml), or TNF (2 ng/ml) and TNF induced by IL-1ß (2 ng/ml) was assessed using serially diluted compounds. The compounds except 1-2 reduced the level of CXCL8 production stimulated by LPS in a dose dependent manner (FIG. 3A). However, the compounds from chemotype 5 enhanced CXCL8 release by THP-1 cells when stimulated with IL-111, or TNF (FIGS. 3B, C). […] The 1Cs0 for 1-1, 1-2 and 3-1 for IL-1ß stimulated CXCL8 release included 400, 1770, and 2020 nM, respectively, (FIG. 3C).

THP-1 cells [3] = experiment: IL-1ß stimulated CXCL8 release by THP-1 cells; settings: IL-1ß 2 ng/ml, overnight (FIG. 3C)
Method: as §1, §2

RA FLS [4] = experiment: Cell viability of RA FLS by WST-8 assay; settings: WST-8 assay (FIG. 6F)
Method: Two types of tetrazolium were used for viability assays. For THP-1 cells, the cells were dispensed in 96-well plates (10^5 cells/200 μL/ well) and treated with 5 Oil of each compound. After 18 h of incubation, 0.5 mg/ml 3[4,5-dimethylthiazol-2-yl]-2,5-dipheyl tetrazolium bromide (MTT; Thermo Fisher Scientific) in assay media was added to each well at a final concentration of (0.5 mg/ml) and further incubated for 4-6 h. The absorbances at 570 and 650 nm were measured by a Tecan Infinite M200 plate reader, For RA FLS, the cells were dispersed into 96-well flat bottom plates (104/200 μL/well) and incubated overnight. The next day, RA FLS were treated with 5 μM of each compound for 18 h of incubation. Ten μl of WST-8 [2-(2-methoxy-4-nitrophenyl)-3-(4-nitrophenyl)-5-(2,4-disulfophewnyl)-2H-tetrazolium, monosodium salt] solution was added to each well and the cells were further incubated for 2-4 h. The absorbance was measured at 450 nm with Bio-Rad iMark plate reader (Bio-Rad Laboratories Inc., Hercules, CA, Unites States).

RA FLS [5] = experiment: Synergy of compound 1-1 with DEX in TNF stimulated RA FLS (isobologram)
Method: Drug synergy analysis was performed using lsobologram plots which were calculated according to reported procedures to compute IC50 and determine synergism. IC50 is computed from the median effect equation. Synergism analysis is carried out using the Combination index (Cl)-isobol method. Data analysis was performed using the CompuSyn software available on combisyn.com, Detailed methodology was used as described in a prior report. […] This is followed by Cl-isobol method to quantitatively assess the synergism between these inhibitor drugs. […] From the median effect equation, the estimated dose (i.e., D) necessary to produce the inhibition (i.e., Fa, Fu) obtained by the combination was calculated. […]
In the pathogenesis of rheumatoid arthritis, fibroblast-like synoviocytes (RA FLS) are a primary source of inflammatory cytokines and chemokines in inflamed joints. The immunomodulatory effects and cytotoxicity of compound 1-1 on RA FLS was analyzed. […] To assess the synergistic effect of compound 1-1 with DEX in RA FLS, IL-6 and CXCL8 suppression was analyzed by co-titrating DEX and compound 1-1 in cultures with TNF stimulated RA FLS (FIG. 7A, B).

IC50 (THP-1 cells [2]): 900 nM
IC50 (THP-1 cells [3]): 400 nM
Structure (SMILES): Cc1ccc(-n2ncc3c(NC4CCCCC4)ncnc32)c(C)c1 [Compound 1-1]
% Cellular Viability (Purchased) (THP-1 cells [1]): 98.7%
Cytotoxicity in RA FLS (RA FLS [4]): low cytotoxicity
Synergistic effect with DEX, CXCL8 release (RA FLS [5]; isobologram (FIG. 7C)): synergistic effects
Synergistic effect with DEX, IL-6 release (RA FLS [5]; isobologram (FIG. 7D)): synergistic effects
